This is an account of results in patent publication US20260207765A1, “COVALENTLY-MODIFIED STEROID ACID-PEPTIDES HAVING ENHANCED STABILITY AND/OR BIOLOGICAL ACTIVITY” (priority 2022, published 2026).

The subject of series [1] is JIMT-1 breast cancer cells. Put plainly: Cytotoxicity of steroid acid-peptide conjugates in JIMT-1 cells. The note with it: JIMT-1, FIGS. 21A and 21B. The format is cell-based. The procedure: (§1) Apoptosis analysis was conducted by flow-cytometry. Briefly, target cells were first treated then washed. Treated cells were then re-suspended in Annexin-V staining buffer prior to staining with Annexin-V and propidium iodine (PI). Fifteen minutes later, cells were washed prior to analysis using BD FACS™ Diva on CANTOII™.
50 mg of CDCA-C-SV40 monomers (or other steroid acid-peptide monomers) were resuspended in 200-500 μL of DMSO. 10 eq of N,N-Diisopropylethylamine (DIPEA) was added to the mixture and incubated in a thermomixer at 37° C. with agitation (1000 rpm) overnight, enabling dimerization of the monomers via their N-terminal cysteine thiol groups to produce (CDCA-C-SV40)2 or other dimers. The samples were then analyzed by UPLC-MS to evaluate dimer formation efficiency. Cell toxicity was evaluated via a Cell Toxicity assay (PrestoBlue™).

For series [2], the system named is EL4 lymphoma. Put plainly: EL4 tumor model in mice. The format is in vivo, mouse. The note with it: highest tested dose (190 μM), every 48 h, total of 5 injections. The procedure: Female C57BL/6 mice (n=10/group) received a SC injection of 5×10^5 EL4 cells at Day 0. […] For all depletion studies, antibodies were injected via the intraperitoneal route at days 0, 3 and 6 at a concentration of 200 μg/injection. Tumor size and animal survival for all of the above listed in vivo studies was followed thereafter using a digital caliber until reaching endpoints (ulceration or a tumor volume ≥1000 mm^3).

For series [3], the system named is mesenchymal stromal cells (MSCs). Put plainly: Apoptosis analysis by flow cytometry on MSCs. The format is cell-based. The note with it: 190 μM. How it is done: as §1
On the technique in general: In flow cytometry, cells or beads pass a laser one at a time.

Series [4] concerns macrophages. Put plainly: Apoptosis analysis by flow cytometry on macrophages. The format is cell-based. The note with it: 190 μM. The procedure:
as §1

In series [5] the test system is EL4 lymphoma cells. Put plainly: Apoptosis analysis / kill curve by flow cytometry (Annexin-V, PI). The format is cell-based, mouse. The procedure: as §1
Series [6] concerns bone marrow-derived dendritic cells (DCs). Put plainly: Apoptosis analysis by flow cytometry on bone marrow-derived dendritic cells. The note with it: 190 μM. The format is cell-based, mouse. The procedure: Mouse bone marrow derived DCs (BMDCs) were generated by flushing the whole marrow from mouse femurs using RPMI™ 1640 supplemented with 10% fetal bovine serum (FBS), 50 U/mL Penicillin-Streptomycin, 2 mM L-glutamine, 10 mM HEPES, 1% MEM Non-essential Amino Acids, 1 mM Sodium Pyruvate, 0.5 mM β-mercaptoethanol. Following red blood cell lysis, cells were then cultured in media supplemented with 50 ng/mL murine recombinant GM-CSF. The media was changed on days 2, 4, 6 and 8. On day 9, the media was replaced to include recombinant murine GM-CSF and LPS from Escherichia coli 0111 (1 ng/mL) to stimulate DC maturation. Mature DCs were assessed by flow cytometry for their surface expression of CD3, CD19, NK1.1, CD11c, CD80, CD86, and I-A^b.
as §1

The subject of series [7] is EL4, B16, E0771, CT-26, 4T1, MBA-MD-468, H460 and A549 cancer cells. Put plainly: Annexin-V cytotoxicity screen of bile acid-SV40 conjugates on eight tumor cell lines. The format is cell-based. The note with it: 190 μM, all eight tumor cell lines. The procedure:
Annexin-V staining percentage after treatment with different bile acid-SV40 conjugates (190 μM) is shown relative to live cancer cells (i.e., PBS treated cancer cells) by flow cytometry. Cancer cell lines tested were EL4 lymphoma, B16 melanoma, E0771 breast cancer, CT-26 colon carcinoma, 4T1 breast cancer, MBA-MD-468 triple-negative breast cancer, human H460 lung cancer, and human A549 lung cancer. […] SV40 alone was also tested as a negative control.
as §1

Series [8] has as its system wild-type MSC and B3Z reporter system. Put plainly: Antigen cross-presentation, wild-type MSC and B3Z reporter system. The note with it: 50 μM, sample stored 3 months at −80° C. (thawed).

Positions of bridges follow the written chain, without caps; N, C: chain ends. Residues, ends and D or L forms follow the SMILES beside them. Chains are numbered I, II in the order given. No end group written: not given here. *: point of attachment. Chenodeoxycholyl = C[C@H](CCC(=O)*)[C@H]1CC[C@H]2[C@@H]3[C@H](O)C[C@@H]4C[C@H](O)CC[C@]4(C)[C@H]3CC[C@]12C; Cholyl = C[C@H](CCC(=O)*)[C@H]1CC[C@H]2[C@@H]3[C@H](O)C[C@@H]4C[C@H](O)CC[C@]4(C)[C@H]3C[C@H](O)[C@]12C

`CC(C)[C@H](NC(=O)[C@H](CCCCN)NC(=O)CNC(=O)[C@H](Cc1ccc(O)cc1)NC(=O)CNC(=O)[C@H](CO)NC(=O)[C@H](CSSC[C@H](NC(=O)CC[C@@H](C)[C@H]1CC[C@H]2[C@@H]3[C@H](O)C[C@@H]4C[C@H](O)CC[C@]4(C)[C@H]3CC[C@]12C)C(=O)N[C@@H](CO)C(=O)NCC(=O)N[C@@H](Cc1ccc(O)cc1)C(=O)NCC(=O)N[C@@H](CCCCN)C(=O)N[C@H](C(=O)N[C@@H](CO)C(=O)N[C@@H](CCCNC(=N)N)C(=O)N[C@@H](CCCNC(=N)N)C(=O)NCC(=O)NCC(=O)N[C@@H](Cc1c[nH]cn1)C(=O)N[C@@H](CCC(N)=O)C(=O)N[C@@H](CC(N)=O)C(=O)N[C@@H](CO)C(=O)N[C@@H](Cc1ccc(O)cc1)C(=O)N[C@@H](CCCCN)C(=O)N1CCC[C@H]1C(=O)N[C@@H](Cc1ccc(O)cc1)C(=O)O)C(C)C)NC(=O)CC[C@@H](C)[C@H]1CC[C@H]2[C@@H]3[C@H](O)C[C@@H]4C[C@H](O)CC[C@]4(C)[C@H]3CC[C@]12C)C(=O)N[C@@H](CO)C(=O)N[C@@H](CCCNC(=N)N)C(=O)N[C@@H](CCCNC(=N)N)C(=O)NCC(=O)NCC(=O)N[C@@H](Cc1c[nH]cn1)C(=O)N[C@@H](CCC(N)=O)C(=O)N[C@@H](CC(N)=O)C(=O)N[C@@H](CO)C(=O)N[C@@H](Cc1ccc(O)cc1)C(=O)N[C@@H](CCCCN)C(=O)N1CCC[C@H]1C(=O)N[C@@H](Cc1ccc(O)cc1)C(=O)O` [(CDCA-C-hnRNP D NLS)2] (I: Chenodeoxycholyl-CSGYGKVSRRGGHQNSYKPY-OH / II: Chenodeoxycholyl-CSGYGKVSRRGGHQNSYKPY-OH; disulfide I:1-II:1): in series [1], the “cytotoxicity of dimerized version versus monomer” value is “enhancement of cytotoxicity”. For the compound `CSCC[C@H](NC(=O)[C@H](CS)NC(=O)CC[C@@H](C)[C@H]1CC[C@H]2[C@@H]3[C@H](O)C[C@@H]4C[C@H](O)CC[C@]4(C)[C@H]3C[C@H](O)[C@]12C)C(=O)NCC(=O)N[C@@H](CCCNC(=N)N)C(=O)N[C@H](C(=O)N[C@@H](CCCNC(=N)N)C(=O)N[C@H](C(=O)N[C@@H](CCCCN)C(=O)N[C@H](C(=O)N[C@H](C(=O)N[C@@H](CCCCN)C(=O)N[C@@H](CCCCN)C(=O)N[C@@H](C)C(=O)N[C@@H](C)C(=O)NCC(=O)NCC(=O)O)C(C)C)[C@@H](C)O)[C@@H](C)O)C(C)C` [CA-C-NLS1 RPS17] (Cholyl-CMGRVRTKTVKKAAGG-OH; N-terminus and C-terminus assumed), in series [2], the “survival at day 40” value is on record as 20% and the tumor growth entry was “significantly delayed tumor growth”.

For `CC[C@H](C)[C@H](NC(=O)[C@H](CCCNC(=N)N)NC(=O)[C@H](CCCCN)NC(=O)[C@H](CCSC)NC(=O)[C@H](CC(C)C)NC(=O)[C@H](Cc1c[nH]cn1)NC(=O)[C@@H](NC(=O)[C@@H](NC(=O)[C@H](Cc1ccc(O)cc1)NC(=O)CNC(=O)[C@H](C)NC(=O)[C@@H](NC(=O)[C@H](CCCCN)NC(=O)[C@H](CC(N)=O)NC(=O)[C@H](CCCNC(=N)N)NC(=O)[C@H](CC(C)C)NC(=O)[C@H](CCCCN)NC(=O)[C@H](CCCCN)NC(=O)[C@H](CO)NC(=O)[C@H](CS)NC(=O)CC[C@@H](C)[C@H]1CC[C@H]2[C@@H]3[C@H](O)C[C@@H]4C[C@H](O)CC[C@]4(C)[C@H]3C[C@H](O)[C@]12C)[C@@H](C)CC)C(C)C)[C@@H](C)O)C(=O)O` [CA-C-NLS3 RPS17] (Cholyl-CSKKLRNKIAGYVTHLMKRI-OH; N-terminus and C-terminus assumed), in series [2], the “survival at day 40” value stood at 20% and the tumor growth entry is reported as “significantly delayed tumor growth”. In the case of `CC(C)[C@H](NC(=O)[C@H](CCCCN)NC(=O)[C@H](CCCNC(=N)N)NC(=O)[C@H](CCCCN)NC(=O)[C@H](CCCCN)NC(=O)[C@H](CCCCN)NC(=O)[C@@H]1CCCN1C(=O)CNC(=O)[C@H](Cc1ccc(O)cc1)NC(=O)CNC(=O)[C@H](CS)NC(=O)CC[C@@H](C)[C@H]1CC[C@H]2[C@@H]3[C@H](O)C[C@@H]4C[C@H](O)CC[C@]4(C)[C@H]3C[C@H](O)[C@]12C)C(=O)NCC(=O)NCC(=O)O` [CA-C-SV40] (Cholyl-CGYGPKKKRKVGG-OH), the “apoptosis in normal or healthy cells” value in series [3], in series [4] and in series [6] was “induce apoptosis” in each case. In addition, in series [5] (190 μM, EL4, FIG. 6), the “cytotoxicity of Cholic acid-NLS conjugates” value is recorded as “notably higher”. In series [5] (EL4 lymphoma cells, flow cytometry, read-out: EC50 (cell death / kill curve)), the EC50 was 95.9 µM. For the same compound, the “survival at day 40” value in series [2] is recorded as 60%. On to `CC(C)[C@H](NC(=O)[C@H](CCCCN)NC(=O)[C@H](CCCNC(=N)N)NC(=O)[C@H](CCCCN)NC(=O)[C@H](CCCCN)NC(=O)[C@H](CCCCN)NC(=O)[C@@H]1CCCN1C(=O)CNC(=O)[C@H](Cc1ccc(O)cc1)NC(=O)CNC(=O)[C@H](CS)NC(=O)CC[C@@H](C)[C@H]1CC[C@H]2[C@@H]3[C@H](O)C[C@@H]4C[C@H](O)CC[C@]4(C)[C@H]3CC[C@]12C)C(=O)NCC(=O)NCC(=O)O` [CDCA-C-SV40] (Chenodeoxycholyl-CGYGPKKKRKVGG-OH), for which the cytotoxic activity in series [7] was 100%. Regarding `CC(=O)N[C@@H](CS)C(=O)O` [NAC, N-acetylcysteine, reference compound], the “rescue from CA-C-SV40-triggered cell death” value in series [5] (CA-C-SV40 at EC50 dose) is reported as “completely blocked apoptosis”. Consider “CA-C-hnRNPA1: cholic acid conjugated to C-hnRNPA1 M9 NLS peptide (SEQ ID NO: 4) (Cholyl-CSNFGPMKGGNFGGRSSGPY)”, for which, in series [8], the antigen presentation entry is “reduced antigen presentation activity”. Consider “SV40 NLS: nuclear localization signal from SV40 large T-antigen (PKKKRKV; SEQ ID NO: 2), tested alone as negative control [reference compound]”, for which, in series [5], the cytotoxic activity result was “did not exhibit any cytotoxic activity”.
